{"source": "paper PMC7095870", "about": "(Nature Medicine, 2000)", "key": {"[1]": {"tested_on": "RSV F protein", "conditions": "ref [14], cited from earlier work"}, "[2]": {"tested_on": "RSV F construct FN155 (F residues 155–550)", "conditions": "yeast two-hybrid assay; FN155 construct encoding F residues 155–550; ref [14]; cited from earlier work"}, "[3]": {"tested_on": "RSV (A2 strain) in HEp-2 cells"}, "[4]": {"tested_on": "RSV F (HEp-2 cells expressing RSV F, G and SH)", "assay_type": "cell-based, respiratory syncytial virus"}}, "note": "No end group written: not given here.", "data": [{"substance": "RhoA: RhoA, a small GTPase of the Ras superfamily", "values": [{"measurement": "binding to RSV F protein", "setting": "[1]", "value": "binds"}, {"measurement": "binding to RSV F construct expressing the heptad repeat region", "setting": "[2]", "value": "not bind"}]}, {"substance": "RhoA amino acids 67–110: F binding domain of RhoA (amino acids 67–110)", "values": [{"measurement": "binding to RSV F amino acids 146–155", "setting": "[1]; RhoA amino acids 67–110", "value": "bind"}]}, {"substance": "DRLRPLSYPDTDVILMCFS [RhoA67-85]", "values": [{"measurement": "RSV-induced syncytium formation", "setting": "[3]; peptide incubated 1 h on ice with RSV, 5 and 10 μg/ml, HEp-2 cells, 3 d", "value": "did not block"}]}, {"substance": "TDVILMCFSIDSPDSLENI [RhoA77-95]", "values": [{"measurement": "IC50", "setting": "[3]; 1 h", "value": 250, "unit": "nM"}]}, {"substance": "DSPDSLENIPEKWTPEVKH [RhoA87-105]", "values": [{"measurement": "cell-to-cell fusion induced by RSV F", "setting": "[4]", "value": "not inhibited"}, {"measurement": "plaque formation", "setting": "[3]; pretreatment of virus inoculum, 1 h on ice, peptide 5 and 10 μg/ml, HEp-2 cells, 3 d, relative to media-treated controls", "value": "did not have any effect"}]}]}
